From patent publication US8350042B2, “Antiviral compounds for the treatment of HCV infection” (The Regents of the University of California, priority 2008, dated 2013)

Tested on: BM4-5 FEO replicon (genotype 1b HCV)
Experiment: HCV replicon assay
Details: cells stably expressing BM4-5 FEO replicon, 48 hours incubation
Protocol: HCV replicon assays were used to measure compound activity in cells. The impact of compounds on HCV replicon replication was assessed, using a method that was previously described (ref.: Wyles, D. L., Kaihara, K. A., Vaida, F. & Schooley, R. T. Synergy of small molecular inhibitors of hepatitis C virus replication directed at multiple viral targets. J Virol 81, 3005-8 (2007).) in cells stably expressing the BM4-5 FEO replicon in 96-well plates (10,000 cells/well). […] For testing the effect of compounds on the HCV replicon cells were incubated with compound for 48 hours and the results expressed as the mean (±SEM) of the relative light units for each condition. A sigmoidal dose response curve was then fitted to the data using Prism4.0 (GraphPad Software).

Compound: CC(=O)c1ccc(C(=O)N[C@@H](CCCCN)C(=O)N2C[C@H](N)C[C@H](N)C2)cc1 [Formula III]
- Inhibition of HCV in a subgenomic replicon: inhibition of HCV
